# Reference: patent US5804603A, “Synthesized β-adrenergic blockers derivatives of guaiacol” (National Science Council, priority 1995, dated 1998)
# Like-named read-outs stand apart in the source and are kept apart here.
# Columns and labels:
# β1 and β2 receptors = details: cited from earlier work
# [1] = tested on: right eye of male Wistar rats; experiment: Eye wiping test (pain-producing potency); assay type: in vivo; details: for pain producing potency: eye drops 10^-4 to 10^-2 M, 30 min, FIG. 1
# Protocol: The wiping test was performed as described by Szolcsanyiand, Jancso-Gabor. Briefly, the solution or suspension of the test compound and its analogs was made up in 10% ethanol, 5% Tween 80 and then diluted with saline to the required concentrations. Each solution or suspension of 10^-4 M, 10^-3 M, 10^-2 M was dropped into the right eye (vehicle being administered to the left eye as negative control) of male Wistar rats weighing 180-250 g and the total number of protective movements (scratching, wiping of the eye with the foreleg) was counted for 30 minutes. Each test was carried out with a total of 6 rats, and a dose-response curve was obtained from the mean value of each group.
# β-receptor = β-receptor (Cavia porcellus, UniProt H0W3H1); experiment: Receptor binding assay, [3H]-dihydroalprenolol, heart ventricle membranes; details: for IC50: FIG. 15 and Table 4
# Protocol: Method of receptor binding assay. After punching the heads of guinea pigs, the blood was drained and the heart ventricle immediately removed. The ventricles were placed in 10 vols. of ice-cold buffer (250 mM sucrose, 1 mM Magnesium Chloride, 50 mM Tris-HCl, pH 7.5) and all subsequent procedures were carried out at 4° C. The ventricles were homogenized using a homogenizer 3-4 times. The period of each homogenization took 15 seconds. […] The supernatant was further centrifuged at 10,000 g and the final pellet was resuspended in a small volume of 75 mM Tris buffer containing 25 mM Magnesium Chloride. The membrane protein content was determined by a protein assay dye. The receptor binding assay was initiated by incubating 100 μl of, a membrane protein solution with 50 μl of [^3 H]-dihydroalprenolol(^3 H-DHA) and the competing drugs. Additional buffer was added to increase the reaction volume up to 250 μl. The binding reaction was activated at 25° C. water by constantly shaking for 60 minutes. The binding reaction was stopped by diluting it with 1 ml of ice-cold assay buffer. The solution was then filtered on a Whatman GF/C glass fiber filter paper under vacuum suction. The filters were washed 3 times with ice-cold assay buffer and dried at 60±C. in an oven for 2 hrs. Then 4 ml of scintillation fluid was added and the radioactivity was counted on β-counter.
# Water solubility = assay type: physicochemical
# β1 adrenergic receptor [2] = experiment: Antagonism of isoproterenolol on isolated guinea pig right atrium; assay type: cell-based
# Description: (§1) A bath as described in Gen.
# (§2) The determination of the pA2 is made from experiments in which a fixed concentration of the antagonist is used along with graded concentrations of an agonist acting on the same receptor. The presence of the antagonist shifts the agonist dose-response curve to the right.
# β1 adrenergic receptor [3] = target: T1, β1 adrenergic receptor (Cavia porcellus, UniProt H0W3H1); experiment: as above; assay type: cell-based
# T1 construct: isolated guinea pig right atrium; from tissue; host or cells: guinea pig right atrium (isolated organ)
# Description: as §1, §2
# [4] = tested on: heart rate and blood pressure; experiment: Heart rate and blood pressure of anesthetized rats (i.v.); assay type: in vivo; details: for ED50: Rattus norvegicus, iv, read-out: ID50 : heart rate response (95% C.I.); for ED50 / ID50 : heart rate response (95% C.I.): anesthetized rats, Litchfield method; for ID50 : heart rate response (95% C.I.) / time of slightly reduced blood pressure after injection: i.v.; for time of slightly reduced blood pressure after injection: statistical significance not found
# Description: […]. The effect of DZN on heart rate and blood pressure were monitored.
# […]. Exp. Ther., vol. 96, 99-113). The ID50 value is the response of a β drug which produces a response in 50% of […].
# β2 adrenergic receptor = target: T2, β2 adrenergic receptor (Rattus norvegicus, UniProt P10608); experiment: Antagonism of isoproterenolol on isolated rat uterus horns; assay type: cell-based
# T2 construct: from tissue; host or cells: rat uterus horns (isolated organ, stilbestrol and reserpine pretreated)
# Protocol: Female rats were intraperitonealy injected with stilbestrol (1 mg/kg) to elevate the sensitivity of β2 adrenergic receptor in uterus horns. The rats were subsequently administered reserpine to deplete the catecholamine in uterus. The isolated uterus horns were treated with phenoxybenzamine to block the neuronal uptake and the interaction between neuron cells and the adrenergic receptor.
# [5] = tested on: acetic acid-induced writhing syndrome; experiment: Acetic acid-induced writhing (antinociceptive test); assay type: in vivo, male mice (ddk strain); details: for Protection / Writhes No. (Ave. ± S.E.): 1.25 mg/kg i.p., N = 8; for ED50: Mus musculus, ip, read-out: ED50 (95% C.I.); for Potency ratio: relative to DZ = 1.00
# Protocol: Following the method described by Koster antinociceptive tests were carried out in male mice after intraperitoneal administration of test solution. […] The test solution was administered by intraperitoneal injection of a single dose 0.2 ml (vehicle administered as control). Twenty minutes after injection, 0.2 ml of 0.7% acetic acid was injected intraperitoneally to induce writhing.
# in vivo = details: mouse, mice, read-out: LD50 (95% C.L.)
# [6] = tested on: platelet aggregation induced by collagen; experiment: Collagen-induced platelet aggregation in platelet rich plasma; assay type: cell-based; details: 10 μg/ml collagen, PRP; for IC100: Platelet, FIG. 18, read-out: concentration completely inhibiting platelet aggregation
# Protocol: A monophasic aggregation curve was observed when 10 μg/ml of collagen was added to platelet rich plasma (PRP).
# [7] = tested on: isolated rat right atrium; experiment: Isolated rat right atrium pretreated with reserpine; assay type: cell-based
# blood vessels = details: mouse and rat; cited from earlier work
# isolated portal veins = details: mice; cited from earlier work
# [8] = tested on: carrageenin-induced paw edema; details: in vivo; cited from earlier work
# platelets = details: cited from earlier work
# intraocular pressure = details: in vivo; cited from earlier work
# [9] = tested on: heart rate and blood pressure; experiment: Heart rate and blood pressure changes of rats induced by guaiacoxypropanolamines; assay type: in vivo
# [10] = target: T3, Isolated Guinea Pig Atria (Cavia porcellus, UniProt H0W3H1); experiment: pA2 on isolated guinea pig atria; assay type: cell-based
# T3 construct: Isolated Guinea Pig Atria; from tissue; host or cells: guinea pig atria (isolated organ)
# [11] = mice, Litchfield and Wilcoxon method
# [12] = 5 min after dosing, 1.0 mg/kg iv, means ± SE (n = 8)
# [13] = 10 min after dosing, 1.0 mg/kg iv, means ± SE (n = 8)
# [14] = 15 min after dosing, 1.0 mg/kg iv, means ± SE (n = 8)
# [15] = 30 min after dosing, 1.0 mg/kg iv, means ± SE (n = 8)
# [16] = 60 min after dosing, 1.0 mg/kg iv, means ± SE (n = 8)
# T2 sequence (P10608 whole entry): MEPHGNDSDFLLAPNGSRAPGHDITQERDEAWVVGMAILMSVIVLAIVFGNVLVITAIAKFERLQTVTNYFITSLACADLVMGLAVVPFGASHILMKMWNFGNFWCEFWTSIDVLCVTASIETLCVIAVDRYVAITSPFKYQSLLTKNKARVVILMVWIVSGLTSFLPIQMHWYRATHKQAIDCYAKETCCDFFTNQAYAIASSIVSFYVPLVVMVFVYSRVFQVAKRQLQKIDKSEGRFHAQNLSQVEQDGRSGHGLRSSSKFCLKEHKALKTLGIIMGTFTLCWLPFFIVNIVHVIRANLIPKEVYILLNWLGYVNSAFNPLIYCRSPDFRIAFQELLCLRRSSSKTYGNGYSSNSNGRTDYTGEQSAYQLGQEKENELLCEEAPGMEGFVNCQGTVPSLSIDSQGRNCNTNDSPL
# T3 sequence (H0W3H1 1-470): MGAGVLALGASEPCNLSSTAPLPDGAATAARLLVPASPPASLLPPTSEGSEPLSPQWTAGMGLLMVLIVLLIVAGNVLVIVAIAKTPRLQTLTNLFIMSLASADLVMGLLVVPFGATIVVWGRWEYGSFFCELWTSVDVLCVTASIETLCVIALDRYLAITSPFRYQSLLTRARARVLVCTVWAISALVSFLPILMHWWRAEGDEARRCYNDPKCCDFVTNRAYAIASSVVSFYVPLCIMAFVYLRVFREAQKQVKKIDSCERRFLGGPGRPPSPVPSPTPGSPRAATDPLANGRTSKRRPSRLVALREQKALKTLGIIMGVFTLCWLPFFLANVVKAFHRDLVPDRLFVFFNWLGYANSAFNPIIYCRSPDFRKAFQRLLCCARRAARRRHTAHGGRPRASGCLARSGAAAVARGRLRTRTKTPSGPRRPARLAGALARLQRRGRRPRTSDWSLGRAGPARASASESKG
# T1 sequence (H0W3H1 1-470): as above
# β-receptor, sequence (H0W3H1 1-470): as above
compound,measurement,setting,value
"CC(C)NCC(O)COc1ccc(CC(N)=O)cc1 (racemic) [Atenolol, reference compound]",cardioselectivity,β1 and β2 receptors,possess cardioselectivity
"COc1cc(C=CC(C)=O)ccc1OCC(O)CNC(C)(C)C (racemic) [DZBN, 4-[4'-(2-hydroxy-3-tert-butylaminopropoxy)-3'-methoxyphenyl]-3-buten-2-one]",pain producing potency,[1],lower than that of DZ and zingerone
same,pungency,"[1]; rat, in vivo",lower pungency
same,EC50,β-receptor,3600 nM
same,IC50,β-receptor,close to the IC50 values of the well known β-adrenergic agonist Atenolol
same,water solubility,Water solubility,watersoluble
"COc1cc(C=CC(C)=O)ccc1OCC(O)CNC(C)C (racemic) [DZN, 4-[4'-(2-hydroxy-3-isopropylaminopropoxy)-3'-methoxyphenyl]-3-buten-2-one]",pain producing potency,[1],lower than that of DZ and zingerone
same,Cardioselectivity ratio,β1 adrenergic receptor [2],4.26
same,shift of isoproterenolol concentration-effect curve,β1 adrenergic receptor [3]; guinea pig right atrium,partially shifted to the right
same,"slope of regression (Schild plot), β1",β1 adrenergic receptor [3]; guinea-pig right atrium,0.96 ± 0.05
same,Kb,"β1 adrenergic receptor [3]; read-out: pA2, β1 (converted)",6.92 nM
same,ED50,[4],0.22 mg/kg
same,duration of bradycardia,"[4]; i.v. 0.1, 0.5, 1.0 mg/kg",over 1 hr
same,bradycardia,"[4]; i.v. 0.1, 0.5, 1.0 mg/kg, FIGS. 3-6",dose-dependent bradycardia
same,ID50 : heart rate response (95% C.I.),[4]; listed as DZH (compound 4),0.22 (1.29-0.04) mg/kg
same,time of slightly reduced blood pressure after injection,[4],5 to 10 min
same,effect on blood pressure induced by isoproterenolol,"[4]; rat, in vivo",lowered the blood pressure induced by isoproterenolol
same,effect on resting heart rate,"[4]; rat, in vivo",reduced resting heart rate
same,shift of isoproterenolol concentration-effect curve,"β2 adrenergic receptor; 10^-8 -10^-6 M DZN, rat uterus horns",partially shift to the right
same,"slope of regression (Schild plot), β2",β2 adrenergic receptor; rat uterus,0.99±0.11
same,Kb,"β2 adrenergic receptor; read-out: pA2, β2 (converted)",29.5 nM
same,EC50,β-receptor,1300 nM
same,IC50,β-receptor,close to the IC50 values of the well known β-adrenergic agonist Atenolol
same,Protection,[5],86.06%
same,Writhes No. (Ave. ± S.E.),[5],11.17 ± 2.36
same,ED50,[5]; [11],0.11 mg/kg
same,Potency ratio,[5],3.50
same,LD50,in vivo; ip,> 1000 mg/kg
same,LD50,in vivo; po,> 1000 mg/kg
same,inhibition of collagen-induced platelet aggregation,[6],dose-dependent inhibition of platelet aggregation
same,IC100,[6],250 µM
COc1cc(CCC(C)=O)ccc1OCC(O)CNC(C)C (racemic) [ZPN],EC50,β-receptor,11000 nM
CCCC(=O)Nc1ccc(OCC(O)CNC(C)C)c(C(C)=O)c1 (stereo not drawn) [Acebutolol],cardioselectivity,β1 and β2 receptors,possess cardioselectivity
"COc1cc(C=CC(C)=O)ccc1O [DZ, 4-(4'-hydroxy-3'-methoxyphenyl)-3-buten-2-one]",effect on heart rate,[7]; 10^-9 -10^-5 M,did not affect the heart rate within 10^-9 -10^-5 M
same,Protection,[5],63.06%
same,Writhes No. (Ave. ± S.E.),[5],29.60 ± 3.75
same,ED50,[5]; [11],0.38 mg/kg
same,LD50,in vivo; ip,> 1000 mg/kg
same,LD50,in vivo; po,> 1000 mg/kg
same,inhibition of collagen-induced platelet aggregation,[6],dose-dependent inhibition of platelet aggregation
same,IC100,[6],250 µM
"COc1cc(C=CC(C)=O)ccc1OCC1CO1 (stereo not drawn) [DZE, 4-[4'-(2,3-Epoxypropoxy)-3'-methoxyphenyl]-3-buten-2-one]",Protection,[5],65.69%
same,Writhes No. (Ave. ± S.E.),[5],27.50 ± 3.32
same,ED50,[5]; [11],0.23 mg/kg
same,Potency ratio,[5],1.70
same,inhibition of collagen-induced platelet aggregation,[6],dose-dependent inhibition of platelet aggregation
same,IC100,[6],100 µM
CCCCC[C@H](O)CC(=O)CCc1ccc(O)c(OC)c1 [Gingerol],eicosanoid-induced contraction of blood vessels,blood vessels,modulates the eicosanoid-induced contraction of mouse and rat blood vessels
same,contraction of isolated portal veins,isolated portal veins,suppresses the contraction of isolated portal veins in mice
COCCc1ccc(OCC(O)CNC(C)C)cc1 (stereo not drawn) [Metoprolol],cardioselectivity,β1 and β2 receptors,possess cardioselectivity
CCCCC/C=C/C(=O)CCc1ccc(O)c(OC)c1 [Shogaol],carrageenin-induced paw edema,[8],inhibitory activity
same,platelet aggregation,platelets,inhibitory activity
COc1cc(C=CC(C)=O)ccc1OCC(O)CNC(C)(C)C (stereo not drawn) [Vaninolol],intraocular pressure (IOP),intraocular pressure,lower the intraocular pressure (IOP)
"CC(C)NCC(O)c1ccc(O)c(O)c1 (stereo not drawn) [isoproterenolol, reference compound]",effect on heart rate and contraction force,[7]; FIG. 16,increases the heart rate and contraction force
same,concentration of isoproterenolol giving maximum effect,[7]; FIG. 17,3 µM
same,effect on blood pressure,[4]; isoproterenolol 0.5 mg/kg,decreased blood pressure
same,effect on heart rate,[4]; isoproterenolol 0.5 mg/kg,increased the heart rate
same,effect on isolated uterus horn smooth muscle,β2 adrenergic receptor; 10^-8 -10^-6 M isoproterenolol,dose-related decrease in relaxation force
"CC(C)NCC(O)COc1cccc2ccccc12 (stereo not drawn) [propranolol, reference compound]",effect on isoproterenolol-induced heart rate and blood pressure changes,"[4]; FIGS. 6(A), 6(B)",antagonized the effects of isoproterenolol
same,ED50,[4],0.14 mg/kg
same,ID50 : heart rate response (95% C.I.),[4],0.14 (0.96-0.02) mg/kg
same,time of slightly reduced blood pressure after injection,[4],5 to 10 min
same,adherence of platelets on collagen,platelets,inhibit platelet release and the adherence of platelets on collagen
same,platelet release,platelets,inhibit platelet release
same,shape change of platelets,platelets,does not inhibit the shape change of platelets
same,change in HR,[9]; [12],-57.28 ± 5.94 beats/min
same,change in BP,[9]; [13],-6.33 ± 2.16 mmHg
same,change in HR,[9]; [13],-63.85 ± 7.18 beats/min
same,change in BP,[9]; [14],-6.50 ± 3.26 mmHg
same,change in HR,[9]; [14],-65.28 ± 8.43 beats/min
same,change in BP,[9]; [15],-4.67 ± 2.66 mmHg
same,change in HR,[9]; [15],-62.57 ± 9.06 beats/min
same,change in BP,[9]; [16],2.17 ± 3.29 mmHg
same,change in HR,[9]; [16],-52.14 ± 10.93 beats/min
same,change in BP,"[9]; iv, 1 mg/kg, 5 min",-2.83 ± 1.81 mmHg
same,inhibition of collagen-induced platelet aggregation,[6],dose-dependent inhibition of platelet aggregation
"COc1cc(CCC(C)=O)ccc1O [zingerone, 4-(4'-hydroxy-3'-methoxyphenyl)-3-butan-2-one, reference compound]",antinociceptive potency relative to DZ,[5],3 times
same,Protection,[5],71.10%
same,Writhes No. (Ave. ± S.E.),[5],20.75 ± 3.40
same,ED50,[5],0.25 mg/kg
same,Potency ratio,[5],1.50
same,inhibition of collagen-induced platelet aggregation,[6],dose-dependent inhibition of platelet aggregation
N-[4-0-(2-hydroxy-3-(3-aminopentylamino)propoxy)-3-methoxybenzyl-]-nonamide [NHC5 H11],"pA2, positive chronotropic",[10]; isolated guinea pig atria,7.25 ± 0.10
same,"pA2, positive inotropic",[10]; isolated guinea pig atria,7.26 ± 0.08
same,"Potency ratio (PR), positive chronotropic",[10]; with respect to propranolol,0.14
same,"Potency ratio (PR), positive inotropic",[10]; with respect to propranolol,0.07
same,change in BP,[9]; [12],-2.78 ± 2.33 mmHg
same,change in HR,[9]; [12],-28.11 ± 9.34 beats/min
same,change in BP,[9]; [13],-2.56 ± 1.42 mmHg
same,change in HR,[9]; [13],-28.89 ± 6.30 beats/min
same,change in BP,[9]; [14],-3.22 ± 1.78 mmHg
same,change in HR,[9]; [14],-22.78 ± 5.04 beats/min
same,change in BP,[9]; [15],-1.33 ± 1.38 mmHg
same,change in HR,[9]; [15],-2.22 ± 7.28 beats/min
same,change in BP,[9]; [16],0.67 ± 0.47 mmHg
same,change in HR,[9]; [16],-3.33 ± 5.69 beats/min
